Experimental data published in EP1285920A1, “C10 Ester sustituted taxanes as antitumor agents” (Florida State University Research Foundation, Inc., priority 2001, dated 2003).
Read-outs that look alike come from different tables or passages of the source.

What was measured:
[1] = system: HCT116; experiment: In Vitro cytotoxicity measured by the cell colony formation assay; type: cell-based, human; conditions: Homo sapiens, HCT-116; read-out: IN VITRO ID 50 HCT116
How it was run: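 Four hundred cells per dish in McCoy's 5a medium with 10% FBS were allowed to attach for 5 h at 37 °C. They were then exposed to compound for 72 h at 37 °C, added as a 10× stock made fresh in medium. After HBSS rinsing and refeeding, colonies were counted after 7 days.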

[2] = system: SK-MES carcinoma; experiment: In vivo evaluation against SK-MES human lung carcinoma xenograft (i.v., Example 11)
Description: (§1) Antitumor compounds were formulated for an i.v. dosing regime prepared in the following vehicle: 10% ethanol, 10% Cremophor and 80% isotonic saline.
(§2) Vehicle control animals were dosed twice intravenously with half the total volume being given separated by one hour. The study was terminated on Day 60.
(§3) A complete response is obtained if the tumor is not palpable at the end of the study.
(§4) A tumor scoring system was designed to provide a more quantitative ranking of efficacy (therapeutic potential) among the antitumor agents evaluated against the different human solid tumor xenografts. Each mouse in a study was given a score of from 1 to 10 at the end of the study. The scores can be summarized as follows:
(§5) The individual score for each mouse was averaged into a mean score for each treatment group. […]

[3] = system: NCI-H1299 (H1299) carcinoma; experiment: In vivo evaluation against NCI-H1299 human lung carcinoma xenograft (i.v., Example 11)
Description: as §1, §2, §3, §4, §5
The treatment protocol for the H1299 test was identical to the SK-MES test protocol. […]

[4] = system: HCT116 carcinoma; conditions: i.v. qd x 1 at MTD, Day 60
How it was run: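 Mice bearing HCT116 tumours received a single i.v. maximum tolerated dose per compound, formulated in 5% ethanol, 5% Cremophor, 90% isotonic saline. Study ended on Day 60; complete response meant no palpable tumour at study end.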

[5] = system: DU145 prostate carcinoma
Source text: Dosing was initiated on Day 1. […] Treatment groups are detailed in Table 5.

[6] = system: A375 melanoma
Description: Dosing was initiated on Day 1. […] Taxotere was given i.v. on a qd x 1 schedule at a dose of 70 mg/kg. […] The study was terminated on Day 60. Treatment groups are detailed in Table 9.

[7] = system: VM46 colon carcinoma
Description: Dosing was initiated on Day 1. […] Taxotere was given i.v. at a dose of 70 mg/kg on a qd x 1 schedule.

[8] = system: Panc-1 pancreatic carcinoma; experiment: In vivo evaluation against Panc-1 human pancreatic carcinoma (Example 17)
[9] = number of 5 mice, i.v. qd x 1 at estimated MTD (Taxol 24 mg/kg split), Day 91
[10] = number of mice, i.v. qd x 1 at estimated MTD (Taxol 24 mg/kg, Taxotere 70 mg/kg), 6 mice/group (Taxotere 7), Day 60
[11] = VM46, i.v. qd x 1, six mice per group
[12] = number of mice, i.v. qd x 1, mg/kg: Taxol 24, 0499 77, 0503 72.6, 0670 123.1, 0706 107.6, 0838 72.6, 0854 46.6, 0983 67.4, Taxotere 70, 6 mice/group, Day 64
[13] = number of mice, i.v. qd x 1, mg/kg: Taxol 36, 0499 77, 0503 72.6, 0670 123.1, 0706 107.6, 0838 72.6, 0854 76.9, 6 mice/group, Day 60

CCC(=O)O[C@H]1C(=O)[C@@]2(C)[C@H]([C@H](OC(=O)c3ccccc3)[C@]3(O)C[C@H](OC(=O)[C@H](O)[C@@H](NC(=O)OC(C)(C)C)c4ccccn4)C(C)=C1C3(C)C)[C@]1(OC(C)=O)CO[C@@H]1C[C@@H]2O [Compound 0503]
IC50 [1]: < 1 nM | antitumor activity ([2]; SK-MES, 0503 72.1 mg/kg i.v.): highly active | MDS (n) ([2]; SK-MES, i.v. MTD in two half doses one hour apart, qd x 1, Taxol 36 mg/kg, 0503 72.1 mg/kg, days until tumor 1.5 g, ended Day 60): 46.0 ± 0(2) days | Toxic Deaths ([2]; SK-MES, i.v. split dose qd x 1, six mice per group): 0 | Survivors ([2]; SK-MES, i.v. split dose qd x 1, six mice per group, Day 60): 4 | Stable Disease ([2]; SK-MES, i.v. split dose qd x 1, tumor below 1.5 g at termination): 1 | Partial Response ([2]; SK-MES, i.v. split dose qd x 1, tumor smaller than on Day 1): 0 | Mean Score ([2]; SK-MES, tumor score 1 to 10 per mouse, group mean): 6.5 ± 1.6 | tolerability ([2]; mouse, in vivo, iv, 72.1 mg/kg): well tolerated | Partial Response ([3]; i.v. split dose qd x 1): 0 | Stable Disease ([3]; i.v. split dose qd x 1): 3 | antitumor activity ([3]; i.v. split dose qd x 1): significant efficacy | Survivors ([3]; i.v. split dose qd x 1, six mice per group): 5 | Mean Score ([3]; tumor score 1 to 10 per mouse, group mean): 5.5 ± 1.6 | Mean Score ([4]; 5 mice/group, doses as in E3): 9.2 ± 0.2 | Stable Disease ([4]; number of 5 mice, tumor did not reach 2.0 g by end of study, doses as in E3): 0 | Complete Response ([4]; number of 5 mice, tumor not palpable at end of study, doses as in E3): 1 | Partial Response ([4]; number of 5 mice, tumor smaller than on Day 1, doses as in E3): 4 | Survivors ([4]; number of 5 mice, doses as in E3): 5 | Toxic Deaths ([4]; number of 5 mice, mg/kg: Taxol 36 (split doses), 0503 72.6, 0536 49, 0663 159, 0670 123, 0687 159, 0706 108, 0908 159, 0947 76.9, 0951 72.6, 0983 72.6, 0999 49, 1003 49, 1011 108): 0 | total response rate ([5]; DU145, i.v. qd x 1 at estimated MTD, five mice per group): at least 50% | Mean Score ([5]; i.v. qd x 1 at estimated MTD (Taxol 24 mg/kg split), 5 mice/group, Day 91): 6.2 ± 1.9 | Stable Disease ([5]; number of 5 mice, tumor did not reach 1.5 g by end of study, i.v. qd x 1 at estimated MTD (Taxol 24 mg/kg split), Day 91): 2 | Toxic Deaths ([5]; number of 5 mice, i.v. qd x 1 at estimated MTD (Taxol 24 mg/kg as two split doses), Day 91): 1 | Complete Response [5, 9]: 2 | Partial Response [5, 9]: 0 | Survivors [5, 9]: 4 | survival extension compared to Group 1 controls ([6]; A375, i.v. qd x 1): 95% | Complete Response ([6]; A375, i.v. qd x 1, six mice per group): 1 | MDS (n) ([6]; mean days of survival until neoplasm reached 2.0 g, i.v. qd x 1 at estimated MTD (Taxol 24 mg/kg, Taxotere 70 mg/kg), 6 mice/group (Taxotere 7), terminated Day 60): 28.1 ± 5.8 (3) days | Toxic Deaths ([6]; number of mice, i.v. qd x 1 at estimated MTD (Taxol 24 mg/kg, Taxotere 70 mg/kg), 6 mice/group (Taxotere 7)): 2 | Complete Response [6, 10]: 1 | Partial Response [6, 10]: 0 | Stable Disease [6, 10]: 0 | Survivors [6, 10]: 1 | Mean Score ([6]; tumor scoring system, i.v. qd x 1 at estimated MTD (Taxol 24 mg/kg, Taxotere 70 mg/kg), 6 mice/group (Taxotere 7)): 2.8 ± 1.5 | tolerability ([7]; VM46, i.v. qd x 1): well-tolerated | partial responses ([7]; VM46, i.v. qd x 1 (compounds estimated MTD; Taxol 24 mg/kg split), six mice per group, ended Day 64): four | Stable Disease [7, 11]: two | Toxic Deaths [7, 11]: no toxic deaths | response rate ([7]; VM46, i.v. qd x 1 at estimated MTD): 66.7% | Toxic Deaths ([7]; number of mice, i.v. qd x 1, mg/kg: Taxol 24, 0499 77, 0503 72.6, 0670 123.1, 0706 107.6, 0838 72.6, 0854 46.6, 0983 67.4, Taxotere 70, 6 mice/group): 0 | Complete Response [7, 12]: 0 | Partial Response [7, 12]: 4 | Stable Disease [7, 12]: 1 | Survivors [7, 12]: 5 | Mean Score ([7]; tumor scoring system, i.v. qd x 1, mg/kg: Taxol 24, 0499 77, 0503 72.6, 0670 123.1, 0706 107.6, 0838 72.6, 0854 46.6, 0983 67.4, Taxotere 70, 6 mice/group): 7.3 ± 1.2 | MDS ([8]; Panc-1 (Example 17), i.v. qd x 1 (compounds estimated MTD; Taxol 36 mg/kg split), days until tumor 1.5 g, ended Day 60): 47 to 56 days | Stable Disease ([8]; Panc-1 (Example 17), i.v. qd x 1, six mice per group): three | MDS (n) ([8]; mean days of survival until neoplasm reached 1.5 g, i.v. qd x 1, mg/kg: Taxol 36, 0499 77, 0503 72.6, 0670 123.1, 0706 107.6, 0838 72.6, 0854 76.9, 6 mice/group, terminated Day 60): 52.5 ± 2.1 (3) days | Toxic Deaths ([8]; number of mice, i.v. qd x 1, mg/kg: Taxol 36, 0499 77, 0503 72.6, 0670 123.1, 0706 107.6, 0838 72.6, 0854 76.9, 6 mice/group): 0 | Complete Response [8, 13]: 0 | Partial Response [8, 13]: 0 | Stable Disease [8, 13]: 3 | Survivors [8, 13]: 3 | Mean Score ([8]; tumor scoring system, i.v. qd x 1, mg/kg: Taxol 36, 0499 77, 0503 72.6, 0670 123.1, 0706 107.6, 0838 72.6, 0854 76.9, 6 mice/group): 3.6 ± 0.4
